From US10106538B2, “Inhibitors of protein kinases” (PRINCETON DRUG DISCOVERY INC, priority 2015, dated 2018)
Read-outs that look alike come from different tables or passages of the source.

Tests used:
[1] = system: breast cancer cell line T-47D; experiment: Cell growth assay with breast cancer cell line T-47D; format: cell-based; conditions: T-47D cells, PrestoBlue Cell Viability reagent, read-out: IC50 inhibition of cell growth
Method: […] of the complete medium was then gently dispersed over the surface of the cell layer for several times. The cell concentration was adjusted to 1×10^4 cells/mL with the complete medium. A 100 μL aliquot of the cell suspension was added to the well of a 96-well plate, and the plate was incubated overnight at 37° C. under 5% CO2 with saturated humidity. On the next day, the medium in each well was aspirated and replaced with a 100 μL aliquot of pre-warmed complete medium at 37° C. in the presence or absence of the test compounds at various concentrations from 0-100 μM. The test compounds were dissolved in DMSO, and the final DMSO concentration in the cell culture was no more than 1%. The plate was incubated for 72 hours at 37° C. under 5% CO2 with saturated humidity. At end of the cell culture a 10 μL aliquot of PrestoBlue® Cell Viability reagent (ThermoFisher Scientific) was added into the well and the plate was incubated at 37° C. for 30 min. The absorption at 570 and 600 nm were measured with a SpectraMax Microplate reader (Molecular Devices), The absorbance at […] was normalized to that at 600 nm.

[2] = molecular target: T1, KIT (Homo sapiens, UniProt P10721); experiment: Off-chip Mobility Shift Assay (MSA) kinase inhibition; format: biochemical; conditions: inhibitor concentration 0.01 μM
T1 construct: purchased Carna Biosciences
Method: (§1) Off-chip Mobility Shift Assay (MSA) by Cama Biosciences, Inc (Natick, Mass.) a used for measuring the kinase activity and inhibition. • 1) The 5 μL of x4 compound solution, 5 μL of x4 Substrate/ATP/Metal solution, and 10 μL of x2 kinase solution were prepared with assay buffer (20 mM HEPES, 0.01% Triton X100, 2 mM DTT, pH 7.5) and mixed and incubated in a well of polypropylene 384 well microplate for 1 or 5 hour(s)* at room temperature.

[3] = molecular target: T2, KIT(D816V) (Homo sapiens, UniProt P10721, D816V); experiment: as above; format: biochemical; conditions: inhibitor concentration 0.01 μM
T2 construct: purchased Carna Biosciences
Method: as §1

[4] = molecular target: T3, SRC (Homo sapiens, UniProt P12931); experiment: as above; format: biochemical; conditions: inhibitor concentration 0.01 μM
T3 construct: purchased Carna Biosciences
Method: as §1

[5] = molecular target: T4, JAK3 (Homo sapiens, UniProt P52333); experiment: as above; format: biochemical; conditions: inhibitor concentration 0.01 μM
T4 construct: purchased Carna Biosciences
T4 sequence (P52333 1-1124): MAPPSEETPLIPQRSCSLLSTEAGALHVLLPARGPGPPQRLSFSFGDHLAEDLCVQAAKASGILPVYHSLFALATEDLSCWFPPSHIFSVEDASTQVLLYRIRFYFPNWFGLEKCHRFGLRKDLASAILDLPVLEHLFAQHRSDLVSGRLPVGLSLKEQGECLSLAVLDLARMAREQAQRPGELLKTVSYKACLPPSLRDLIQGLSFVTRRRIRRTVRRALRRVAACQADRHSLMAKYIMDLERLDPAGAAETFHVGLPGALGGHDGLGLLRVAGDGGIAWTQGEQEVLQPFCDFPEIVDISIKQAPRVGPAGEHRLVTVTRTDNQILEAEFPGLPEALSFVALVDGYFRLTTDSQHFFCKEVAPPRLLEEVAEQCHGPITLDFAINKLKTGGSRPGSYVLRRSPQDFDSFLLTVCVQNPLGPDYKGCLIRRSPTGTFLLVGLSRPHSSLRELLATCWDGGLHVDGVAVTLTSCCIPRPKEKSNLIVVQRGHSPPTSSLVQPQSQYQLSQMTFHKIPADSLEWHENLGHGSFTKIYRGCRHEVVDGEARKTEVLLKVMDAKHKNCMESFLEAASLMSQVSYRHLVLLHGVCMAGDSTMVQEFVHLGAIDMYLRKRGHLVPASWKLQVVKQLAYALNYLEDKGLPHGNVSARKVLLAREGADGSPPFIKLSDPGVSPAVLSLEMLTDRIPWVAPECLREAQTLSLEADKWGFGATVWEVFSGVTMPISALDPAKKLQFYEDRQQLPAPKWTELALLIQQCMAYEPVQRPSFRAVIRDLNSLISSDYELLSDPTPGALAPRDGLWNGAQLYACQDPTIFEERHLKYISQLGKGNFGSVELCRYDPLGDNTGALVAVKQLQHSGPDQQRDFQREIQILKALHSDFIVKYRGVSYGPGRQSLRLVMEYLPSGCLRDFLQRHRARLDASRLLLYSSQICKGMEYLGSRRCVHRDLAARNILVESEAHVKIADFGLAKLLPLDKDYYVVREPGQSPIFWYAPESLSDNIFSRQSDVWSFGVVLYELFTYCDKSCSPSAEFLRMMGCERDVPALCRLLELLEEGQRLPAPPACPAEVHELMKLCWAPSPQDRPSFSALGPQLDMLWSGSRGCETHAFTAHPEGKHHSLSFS
Method: as §1

[6] = molecular target: T5, LCK (Homo sapiens, UniProt P06239); experiment: as above; format: biochemical; conditions: inhibitor concentration 0.01 μM
T5 construct: purchased Carna Biosciences
Method: as §1

[7] = molecular target: T6, PDGFRα (Homo sapiens, UniProt P16234); experiment: as above; format: biochemical; conditions: inhibitor concentration 0.01 μM
T6 construct: purchased Carna Biosciences
Method: as §1

[8] = molecular target: T7, RAF1 (Homo sapiens, UniProt P04049); experiment: as above; format: biochemical; conditions: inhibitor concentration 0.01 μM
T7 construct: purchased Carna Biosciences
Method: as §1

[9] = molecular target: T8, KIT(V560G) (Homo sapiens, UniProt P10721, V560G); experiment: as above; format: biochemical; conditions: inhibitor concentration 0.01 μM
T8 construct: purchased Carna Biosciences
Method: as §1

[10] = molecular target: T9, BRK (Homo sapiens, UniProt Q13882); experiment: as above; format: biochemical; conditions: inhibitor concentration 0.01 μM
T9 construct: purchased Carna Biosciences
Method: as §1

[11] = molecular target: T10, JAK1 (Homo sapiens, UniProt P23458); experiment: as above; format: biochemical; conditions: inhibitor concentration 0.01 μM
T10 construct: purchased Carna Biosciences
Method: as §1

[12] = molecular target: T11, KIT(T670I) (Homo sapiens, UniProt P10721, T670I); experiment: as above; format: biochemical; conditions: inhibitor concentration 0.01 μM
T11 construct: purchased Carna Biosciences
Method: as §1

[13] = molecular target: T12, BRAF (Homo sapiens, UniProt P15056); experiment: as above; format: biochemical; conditions: inhibitor concentration 0.01 μM
T12 construct: purchased Carna Biosciences
Method: as §1

[14] = molecular target: T13, PDGFRβ (Homo sapiens, UniProt P09619); experiment: as above; format: biochemical; conditions: inhibitor concentration 0.01 μM
T13 construct: purchased Carna Biosciences
Method: as §1

[15] = molecular target: T14, BRAF(V600E) (Homo sapiens, UniProt P15056, V600E); experiment: as above; format: biochemical; conditions: inhibitor concentration 0.01 μM
T14 construct: purchased Carna Biosciences
Method: as §1

[16] = molecular target: T15, SRM (Homo sapiens, UniProt Q9H3Y6); experiment: as above; format: biochemical; conditions: inhibitor concentration 0.01 μM
T15 construct: purchased Carna Biosciences
Method: as §1

[17] = molecular target: T16, FGR (Homo sapiens, UniProt P09769); experiment: as above; format: biochemical; conditions: inhibitor concentration 0.01 μM
T16 construct: purchased Carna Biosciences
Method: as §1

[18] = molecular target: T17, JAK2 (Homo sapiens, UniProt O60674); experiment: as above; format: biochemical; conditions: inhibitor concentration 0.01 μM
T17 construct: purchased Carna Biosciences
Method: as §1

[19] = molecular target: T18, PDGFRα(T674I) (Homo sapiens, UniProt P16234, T674I); experiment: as above; format: biochemical; conditions: inhibitor concentration 0.01 μM
T18 construct: purchased Carna Biosciences
Method: (§2) Off-chip Mobility Shift Assay (MSA) by Cama Biosciences, Inc (Natick, Mass.) a used for measuring the kinase activity and inhibition. • 1) The 5 μL of x4 compound solution, 5 μL of x4 Substrate/ATP/Metal solution, and 10 μL of x2 kinase solution were prepared with assay buffer (20 mM HEPES, 0.01% Triton X100, 2 mM DTT, pH 7.5) and mixed and incubated in a well of polypropylene 384 well microplate for 1 or 5 hour(s)* at room temperature. (*; depending on kinase) • 2) 70 μL of Termination Buffer (QuickScout Screening Assist A; Cama Biosciences) was added to the welt • 3) The reaction mixture was applied to LabChip system (Perkin Elmer), and the product and substrate peptide peaks were separated and quantitated. • 4) The kinase reaction was evaluated by the product ratio calculated from peak heights of product (P) and substrate (S) peptides (P/(P+S)). • 5) The reaction conditions were followed according to assay protocols of Ca n Biosciences, Inc (BMA 3F, 1-5-5 Minatojima-Minamimachi, Chuo-ku, Kobe 650-0047, Japan; www.carnabio.com). • 6 Data analysis: The readout value of reaction control (complete reaction mixture) was set as a 0% inhibition, and the readout value of background (Enzyme (−)) was set as a 100% inhibition, then the percent inhibition of each test solution was calculated, […]

[20] = molecular target: T19, PDGFRα(D842V) (Homo sapiens, UniProt P16234, D842V); experiment: as above; format: biochemical; conditions: inhibitor concentration 0.01 μM
T19 construct: purchased Carna Biosciences
Method: as §2

[21] = molecular target: T20, PDGFRα(V561D) (Homo sapiens, UniProt P16234, V561D); experiment: as above; format: biochemical; conditions: inhibitor concentration 0.01 μM
T20 construct: purchased Carna Biosciences
Method: as §2

T13 sequence (P09619 33-1106): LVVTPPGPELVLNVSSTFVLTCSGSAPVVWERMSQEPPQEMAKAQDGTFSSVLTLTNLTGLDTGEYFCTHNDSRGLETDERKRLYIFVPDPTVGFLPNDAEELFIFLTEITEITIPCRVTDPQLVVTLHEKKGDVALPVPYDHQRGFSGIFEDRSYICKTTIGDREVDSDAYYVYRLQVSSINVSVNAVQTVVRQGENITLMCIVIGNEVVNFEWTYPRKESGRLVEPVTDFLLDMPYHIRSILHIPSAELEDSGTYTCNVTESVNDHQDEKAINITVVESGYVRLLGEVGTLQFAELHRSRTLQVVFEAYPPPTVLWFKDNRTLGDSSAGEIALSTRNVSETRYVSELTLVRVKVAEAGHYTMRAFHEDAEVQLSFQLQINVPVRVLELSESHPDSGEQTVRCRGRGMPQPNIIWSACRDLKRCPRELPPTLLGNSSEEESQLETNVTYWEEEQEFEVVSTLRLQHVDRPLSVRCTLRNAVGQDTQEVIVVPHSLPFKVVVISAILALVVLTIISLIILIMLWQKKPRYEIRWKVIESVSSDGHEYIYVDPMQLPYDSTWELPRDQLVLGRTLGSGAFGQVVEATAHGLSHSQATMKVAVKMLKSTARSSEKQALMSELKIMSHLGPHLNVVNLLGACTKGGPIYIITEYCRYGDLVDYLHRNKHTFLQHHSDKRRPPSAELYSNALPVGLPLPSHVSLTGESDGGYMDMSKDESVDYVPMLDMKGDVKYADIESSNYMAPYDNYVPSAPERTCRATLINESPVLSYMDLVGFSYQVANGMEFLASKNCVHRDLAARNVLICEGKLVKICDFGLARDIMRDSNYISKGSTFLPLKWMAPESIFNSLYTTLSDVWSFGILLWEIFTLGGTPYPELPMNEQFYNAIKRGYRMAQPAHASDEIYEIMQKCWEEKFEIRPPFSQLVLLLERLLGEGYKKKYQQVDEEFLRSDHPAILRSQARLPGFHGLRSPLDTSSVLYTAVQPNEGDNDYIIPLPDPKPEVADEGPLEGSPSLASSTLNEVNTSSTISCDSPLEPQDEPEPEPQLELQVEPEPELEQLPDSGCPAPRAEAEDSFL
T15 sequence (Q9H3Y6 whole entry): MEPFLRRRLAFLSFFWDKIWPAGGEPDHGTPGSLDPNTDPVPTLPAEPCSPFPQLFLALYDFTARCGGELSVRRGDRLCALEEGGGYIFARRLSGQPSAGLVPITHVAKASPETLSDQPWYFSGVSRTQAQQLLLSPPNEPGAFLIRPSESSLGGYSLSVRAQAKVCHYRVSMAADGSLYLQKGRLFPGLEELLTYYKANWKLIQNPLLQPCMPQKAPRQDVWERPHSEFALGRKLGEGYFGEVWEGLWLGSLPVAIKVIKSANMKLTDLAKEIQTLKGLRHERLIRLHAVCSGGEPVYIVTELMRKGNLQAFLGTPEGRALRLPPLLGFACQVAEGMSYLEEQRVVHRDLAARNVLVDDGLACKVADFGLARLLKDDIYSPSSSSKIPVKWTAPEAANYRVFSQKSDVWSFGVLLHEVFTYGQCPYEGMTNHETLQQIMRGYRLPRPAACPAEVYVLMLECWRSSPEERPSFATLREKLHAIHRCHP
T6 sequence (P16234 24-1089): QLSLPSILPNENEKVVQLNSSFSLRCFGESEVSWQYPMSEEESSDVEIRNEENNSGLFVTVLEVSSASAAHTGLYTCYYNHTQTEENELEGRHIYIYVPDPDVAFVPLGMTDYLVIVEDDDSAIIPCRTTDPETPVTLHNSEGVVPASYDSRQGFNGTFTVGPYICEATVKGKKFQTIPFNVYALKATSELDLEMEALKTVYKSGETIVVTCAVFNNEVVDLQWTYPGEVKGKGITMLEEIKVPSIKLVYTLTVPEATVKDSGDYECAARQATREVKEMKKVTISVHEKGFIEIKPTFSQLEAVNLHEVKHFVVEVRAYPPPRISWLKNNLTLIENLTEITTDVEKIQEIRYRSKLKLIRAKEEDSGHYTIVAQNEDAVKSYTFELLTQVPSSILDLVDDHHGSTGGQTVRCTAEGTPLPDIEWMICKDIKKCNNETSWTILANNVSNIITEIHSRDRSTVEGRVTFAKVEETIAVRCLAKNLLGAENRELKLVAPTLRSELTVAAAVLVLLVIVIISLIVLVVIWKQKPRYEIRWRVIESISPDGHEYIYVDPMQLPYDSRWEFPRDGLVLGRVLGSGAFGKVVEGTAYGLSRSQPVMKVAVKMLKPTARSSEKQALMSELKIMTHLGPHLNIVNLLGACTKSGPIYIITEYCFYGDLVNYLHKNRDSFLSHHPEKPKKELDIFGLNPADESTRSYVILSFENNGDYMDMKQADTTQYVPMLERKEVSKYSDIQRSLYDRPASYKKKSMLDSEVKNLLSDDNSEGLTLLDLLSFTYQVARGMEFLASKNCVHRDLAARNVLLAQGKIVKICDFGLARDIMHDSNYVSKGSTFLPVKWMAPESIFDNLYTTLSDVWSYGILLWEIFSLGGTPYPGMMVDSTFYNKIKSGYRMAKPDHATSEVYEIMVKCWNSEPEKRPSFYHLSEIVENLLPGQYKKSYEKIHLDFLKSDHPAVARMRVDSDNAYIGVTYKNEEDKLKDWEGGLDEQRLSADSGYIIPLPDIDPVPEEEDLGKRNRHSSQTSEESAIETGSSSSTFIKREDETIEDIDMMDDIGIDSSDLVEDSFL
T5 sequence (P06239 whole entry): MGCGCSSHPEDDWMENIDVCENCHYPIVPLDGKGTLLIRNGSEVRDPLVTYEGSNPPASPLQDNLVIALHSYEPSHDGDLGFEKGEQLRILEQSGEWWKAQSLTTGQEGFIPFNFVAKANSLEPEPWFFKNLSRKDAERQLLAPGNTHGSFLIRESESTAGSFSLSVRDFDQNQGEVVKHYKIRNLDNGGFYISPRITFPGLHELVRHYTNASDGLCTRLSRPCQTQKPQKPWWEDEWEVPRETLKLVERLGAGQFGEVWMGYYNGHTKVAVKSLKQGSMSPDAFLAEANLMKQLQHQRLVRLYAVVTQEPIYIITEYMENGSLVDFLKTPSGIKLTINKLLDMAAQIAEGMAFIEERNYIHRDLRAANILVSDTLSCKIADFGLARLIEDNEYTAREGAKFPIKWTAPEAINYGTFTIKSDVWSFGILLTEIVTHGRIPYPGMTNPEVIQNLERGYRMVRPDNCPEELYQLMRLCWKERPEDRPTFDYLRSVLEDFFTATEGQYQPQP
T1 sequence (P10721 26-976): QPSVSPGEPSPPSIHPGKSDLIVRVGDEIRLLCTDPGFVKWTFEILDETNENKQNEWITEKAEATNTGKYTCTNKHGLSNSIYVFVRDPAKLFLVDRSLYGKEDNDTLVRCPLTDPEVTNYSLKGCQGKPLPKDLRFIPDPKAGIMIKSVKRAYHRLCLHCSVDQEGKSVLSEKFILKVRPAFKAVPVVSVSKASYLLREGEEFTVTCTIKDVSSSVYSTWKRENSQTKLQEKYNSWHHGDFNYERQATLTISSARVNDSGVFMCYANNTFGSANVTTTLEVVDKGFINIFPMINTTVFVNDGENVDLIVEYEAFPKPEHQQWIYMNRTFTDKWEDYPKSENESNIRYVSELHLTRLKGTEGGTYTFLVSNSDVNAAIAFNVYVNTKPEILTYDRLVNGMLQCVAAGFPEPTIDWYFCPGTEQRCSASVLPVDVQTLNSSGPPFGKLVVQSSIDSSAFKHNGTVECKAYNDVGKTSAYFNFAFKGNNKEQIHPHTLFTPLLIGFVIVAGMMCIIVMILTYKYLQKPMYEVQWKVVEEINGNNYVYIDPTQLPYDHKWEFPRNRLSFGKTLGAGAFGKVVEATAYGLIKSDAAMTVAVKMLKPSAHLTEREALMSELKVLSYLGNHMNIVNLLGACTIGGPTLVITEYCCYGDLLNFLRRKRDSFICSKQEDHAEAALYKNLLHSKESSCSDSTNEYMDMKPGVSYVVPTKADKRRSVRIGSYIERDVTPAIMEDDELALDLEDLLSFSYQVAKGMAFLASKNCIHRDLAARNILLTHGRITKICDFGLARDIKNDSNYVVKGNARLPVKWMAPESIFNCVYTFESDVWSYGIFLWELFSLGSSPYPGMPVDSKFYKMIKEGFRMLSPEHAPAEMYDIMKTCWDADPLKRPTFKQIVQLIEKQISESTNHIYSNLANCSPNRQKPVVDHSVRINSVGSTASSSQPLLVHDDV
T7 sequence (P04049 whole entry): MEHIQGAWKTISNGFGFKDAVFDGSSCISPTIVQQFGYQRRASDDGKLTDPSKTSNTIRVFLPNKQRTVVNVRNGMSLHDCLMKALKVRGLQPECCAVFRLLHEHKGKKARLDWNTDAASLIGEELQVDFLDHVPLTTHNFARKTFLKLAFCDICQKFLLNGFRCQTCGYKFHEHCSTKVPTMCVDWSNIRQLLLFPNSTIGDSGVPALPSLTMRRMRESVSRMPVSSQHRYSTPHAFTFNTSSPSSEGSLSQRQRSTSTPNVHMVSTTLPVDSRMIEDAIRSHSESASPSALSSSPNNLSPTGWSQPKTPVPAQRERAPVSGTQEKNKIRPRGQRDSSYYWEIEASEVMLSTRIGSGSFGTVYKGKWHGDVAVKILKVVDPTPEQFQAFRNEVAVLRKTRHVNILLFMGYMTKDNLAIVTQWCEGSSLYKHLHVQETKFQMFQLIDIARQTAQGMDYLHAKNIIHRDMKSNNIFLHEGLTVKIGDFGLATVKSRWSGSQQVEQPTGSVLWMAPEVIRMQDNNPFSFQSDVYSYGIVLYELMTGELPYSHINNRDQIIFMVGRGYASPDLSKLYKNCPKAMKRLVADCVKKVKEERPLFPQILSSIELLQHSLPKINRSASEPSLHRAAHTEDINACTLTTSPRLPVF
T11 sequence (P10721 26-976 T670I): as the sequence (P10721 26-976) above, with T645I counted along it
T20 sequence (P16234 24-1089 V561D): as the sequence (P16234 24-1089) above, with V538D counted along it
T19 sequence (P16234 24-1089 D842V): as the sequence (P16234 24-1089) above, with D819V counted along it
T2 sequence (P10721 26-976 D816V): as the sequence (P10721 26-976) above, with D791V counted along it
T8 sequence (P10721 26-976 V560G): as the sequence (P10721 26-976) above, with V535G counted along it
T18 sequence (P16234 24-1089 T674I): as the sequence (P16234 24-1089) above, with T651I counted along it

| Structure (SMILES) | inhibition at 0.01 µM [2] [%] | inhibition at 0.01 µM [3] [%] | inhibition at 0.01 µM [4] [%] | inhibition at 0.01 µM [5] [%] | inhibition at 0.01 µM [6] [%] | inhibition at 0.01 µM [7] [%] | inhibition at 0.01 µM [8] [%] | inhibition at 0.01 µM [9] [%] | inhibition at 0.01 µM [10] [%] | inhibition at 0.01 µM [11] [%] | inhibition at 0.01 µM [12] [%] | inhibition at 0.01 µM [13] [%] | inhibition at 0.01 µM [14] [%] | inhibition at 0.01 µM [15] [%] | inhibition at 0.01 µM [16] [%] | inhibition at 0.01 µM [17] [%] | inhibition at 0.01 µM [18] [%] | inhibition at 0.01 µM [19] [%] | inhibition at 0.01 µM [20] [%] | inhibition at 0.01 µM [21] [%] | also measured |
| --- | --- | --- | --- | --- | --- | --- | --- | --- | --- | --- | --- | --- | --- | --- | --- | --- | --- | --- | --- | --- | --- |
| COCCCS(=O)(=O)Nc1ccc(F)c(C(=O)c2c[nH]c3ncc(-c4ccc(Cl)cc4)cc23)c1F [200-123, N-[3-[5-(4-chlorophenyl)pyrrolo[2,3-b]pyridine-3-carbonyl]-2,4-difluoro-phenyl]-3-methoxypropane-1-sulfonamide] | < 20 | < 20 | < 20 | < 20 | > 20 | < 20 | > 20 | < 20 | > 20 | < 20 | < 20 | < 20 | < 20 | > 20 | > 20 | < 20 | < 20 | < 20 | < 20 | < 20 | IC50 ([1]; Homo sapiens, T47D, 72 h): < 20 µM |
| COCCS(=O)(=O)Nc1ccc(F)c(C(=O)c2c[nH]c3ncc(-c4ccc(Cl)cc4)cc23)c1F [200-139, N-[3-[5-(4-chlorophenyl)pyrrolo[2,3-b]pyridine-3-carbonyl]-2,4-difluorophenyl]-2-methoxyethanesulfonamide] | < 20 | < 20 | < 20 | < 20 | > 20 | > 20 | > 20 | < 20 | > 20 | < 20 | < 20 | < 20 | < 20 | < 20 | > 20 | < 20 | < 20 | < 20 | < 20 | < 20 | IC50 ([1]; Homo sapiens, T47D, 72 h): < 20 µM |
| C/C=C/S(=O)(=O)Nc1ccc(F)c(C(=O)c2c[nH]c3ncc(-c4ccc(Cl)cc4)cc23)c1F [200-93a] | > 30 | > 30 | > 30 | > 30 | > 30 | > 20 | > 30 | > 30 | > 30 | > 30 | > 30 | > 30 | > 20 | > 30 | > 30 | > 30 | > 30 | > 30 | > 30 | > 30 | IC50 ([1]; 72 hours): > 20 µM |
| O=C(c1c(F)ccc(NS(=O)(=O)CCO)c1F)c1c[nH]c2ncc(-c3ccc(Cl)cc3)cc12 [200-149, N-[3-[5-(4-chlorophenyl)pyrrolo[2,3-b]pyridine-3-carbonyl]-2,4-difluorophenyl]-2-hydroxyethanesulfonamide] |  |  |  |  |  |  |  |  |  |  |  |  |  |  |  |  |  |  |  |  | IC50 ([1]; Homo sapiens, T47D, 72 hours): < 20 µM |
